Laboratory results taken from the NIST ThermoML archive (doi:10.1016/j.fluid.2014.10.002).
Values joined by “and” are separate entries in the source; they are usually repeats but may differ in a detail not shown here. Equal entries are not always repeated.

Details: Liquid

CCCCC(CC)COC(=O)c1ccc(C(=O)OCC(CC)CCCC)c(C(=O)OCC(CC)CCCC)c1 (stereo unspecified) [tris(2-ethylhexyl) trimellitate]
Details	viscosity
303.15 K, 980 kPa, Vibrating wire viscometry	158.5 mPa·s
303.15 K, 1030 kPa, Vibrating wire viscometry	158.4 mPa·s
303.15 K, 1080 kPa, Vibrating wire viscometry	158.9 mPa·s
303.15 K, 15060 kPa, Vibrating wire viscometry	220.6 mPa·s and 220.2 mPa·s
303.15 K, 29810 kPa, Vibrating wire viscometry	302.4 mPa·s and 302.1 mPa·s
303.15 K, 29820 kPa, Vibrating wire viscometry	303.1 mPa·s
303.16 K, 2820 kPa, Vibrating wire viscometry	165 mPa·s
303.16 K, 2850 kPa, Vibrating wire viscometry	165.1 mPa·s and 165.7 mPa·s
303.16 K, 5120 kPa, Vibrating wire viscometry	174.3 mPa·s
303.16 K, 5130 kPa, Vibrating wire viscometry	173.4 mPa·s and 173.8 mPa·s and 173.6 mPa·s
303.16 K, 7680 kPa, Vibrating wire viscometry	183.8 mPa·s [middle of 4 runs]
303.16 K, 7690 kPa, Vibrating wire viscometry	183.8 mPa·s
303.16 K, 9830 kPa, Vibrating wire viscometry	193.9 mPa·s
303.16 K, 9850 kPa, Vibrating wire viscometry	193.9 mPa·s
303.16 K, 9880 kPa, Vibrating wire viscometry	194.1 mPa·s
303.16 K, 19950 kPa, Vibrating wire viscometry	242.6 mPa·s
303.16 K, 19980 kPa, Vibrating wire viscometry	242.8 mPa·s
303.16 K, 19990 kPa, Vibrating wire viscometry	242.8 mPa·s
303.16 K, 20010 kPa, Vibrating wire viscometry	243.8 mPa·s
303.16 K, 29820 kPa, Vibrating wire viscometry	303.5 mPa·s and 303.8 mPa·s
303.16 K, 29830 kPa, Vibrating wire viscometry	302.3 mPa·s
303.16 K, 40160 kPa, Vibrating wire viscometry	369.8 mPa·s
303.16 K, 40170 kPa, Vibrating wire viscometry	370.5 mPa·s and 373.1 mPa·s and 370.9 mPa·s
303.16 K, 40180 kPa, Vibrating wire viscometry	373.2 mPa·s and 369.5 mPa·s
303.17 K, 101.33 kPa, Capillary tube (Ostwald / Ubbelohde) method	153.9 mPa·s
303.17 K, 50390 kPa, Vibrating wire viscometry	462.2 mPa·s
303.17 K, 50400 kPa, Vibrating wire viscometry	462.1 mPa·s [middle of 4 runs]
313.16 K, 1220 kPa, Vibrating wire viscometry	87.78 mPa·s
313.16 K, 1230 kPa, Vibrating wire viscometry	87.98 mPa·s
313.16 K, 1310 kPa, Vibrating wire viscometry	88.02 mPa·s
313.16 K, 1320 kPa, Vibrating wire viscometry	87.62 mPa·s and 87.55 mPa·s
313.16 K, 2780 kPa, Vibrating wire viscometry	90.52 mPa·s
313.16 K, 5160 kPa, Vibrating wire viscometry	96.14 mPa·s
313.16 K, 5170 kPa, Vibrating wire viscometry	96.24 mPa·s
313.16 K, 5190 kPa, Vibrating wire viscometry	96.26 mPa·s
313.16 K, 5210 kPa, Vibrating wire viscometry	95.79 mPa·s
313.16 K, 7710 kPa, Vibrating wire viscometry	101.6 mPa·s
313.16 K, 7780 kPa, Vibrating wire viscometry	101.7 mPa·s and 101.9 mPa·s and 101.4 mPa·s
313.16 K, 7790 kPa, Vibrating wire viscometry	101.3 mPa·s
313.16 K, 14800 kPa, Vibrating wire viscometry	117.6 mPa·s
313.16 K, 14820 kPa, Vibrating wire viscometry	117.4 mPa·s
313.16 K, 20040 kPa, Vibrating wire viscometry	132.4 mPa·s
313.16 K, 20050 kPa, Vibrating wire viscometry	131.6 mPa·s
313.16 K, 20060 kPa, Vibrating wire viscometry	131.6 mPa·s
313.16 K, 29930 kPa, Vibrating wire viscometry	159.8 mPa·s
313.16 K, 29970 kPa, Vibrating wire viscometry	160.2 mPa·s
313.16 K, 29980 kPa, Vibrating wire viscometry	159.8 mPa·s
313.16 K, 39960 kPa, Vibrating wire viscometry	197.4 mPa·s
313.16 K, 39980 kPa, Vibrating wire viscometry	197 mPa·s
313.16 K, 40000 kPa, Vibrating wire viscometry	196.9 mPa·s
313.16 K, 40020 kPa, Vibrating wire viscometry	196.6 mPa·s
313.16 K, 50020 kPa, Vibrating wire viscometry	239.1 mPa·s
313.16 K, 50040 kPa, Vibrating wire viscometry	240.3 mPa·s and 239.4 mPa·s
313.16 K, 50070 kPa, Vibrating wire viscometry	239.5 mPa·s
313.16 K, 50080 kPa, Vibrating wire viscometry	239.6 mPa·s
313.16 K, 50090 kPa, Vibrating wire viscometry	239.3 mPa·s
313.16 K, 65420 kPa, Vibrating wire viscometry	317.8 mPa·s
313.16 K, 65430 kPa, Vibrating wire viscometry	319 mPa·s
313.16 K, 65440 kPa, Vibrating wire viscometry	319.8 mPa·s
313.16 K, 65470 kPa, Vibrating wire viscometry	317.5 mPa·s
313.17 K, 2780 kPa, Vibrating wire viscometry	90.59 mPa·s and 90.6 mPa·s
313.17 K, 2790 kPa, Vibrating wire viscometry	90.29 mPa·s and 90.54 mPa·s
313.17 K, 2800 kPa, Vibrating wire viscometry	90.3 mPa·s
313.17 K, 5170 kPa, Vibrating wire viscometry	95.9 mPa·s
313.17 K, 14770 kPa, Vibrating wire viscometry	117 mPa·s
313.17 K, 20060 kPa, Vibrating wire viscometry	132 mPa·s
313.17 K, 29940 kPa, Vibrating wire viscometry	159.5 mPa·s
313.18 K, 101.33 kPa, Capillary tube (Ostwald / Ubbelohde) method	86.37 mPa·s
323.1 K, 101.33 kPa, Capillary tube (Ostwald / Ubbelohde) method	52.41 mPa·s
328.06 K, 101.33 kPa, Capillary tube (Ostwald / Ubbelohde) method	41.71 mPa·s
328.15 K, 2490 kPa, Vibrating wire viscometry	43.18 mPa·s
328.15 K, 2520 kPa, Vibrating wire viscometry	43.29 mPa·s
328.15 K, 5120 kPa, Vibrating wire viscometry	45.81 mPa·s
328.15 K, 7540 kPa, Vibrating wire viscometry	47.59 mPa·s
328.15 K, 7550 kPa, Vibrating wire viscometry	47.68 mPa·s
328.15 K, 7560 kPa, Vibrating wire viscometry	47.66 mPa·s
328.15 K, 10410 kPa, Vibrating wire viscometry	50.91 mPa·s
328.15 K, 10430 kPa, Vibrating wire viscometry	50.81 mPa·s
328.15 K, 15140 kPa, Vibrating wire viscometry	55.66 mPa·s
328.15 K, 20020 kPa, Vibrating wire viscometry	60.75 mPa·s
328.15 K, 20040 kPa, Vibrating wire viscometry	60.75 mPa·s and 60.87 mPa·s
328.15 K, 30400 kPa, Vibrating wire viscometry	74.44 mPa·s
328.15 K, 30410 kPa, Vibrating wire viscometry	74.65 mPa·s
328.15 K, 30420 kPa, Vibrating wire viscometry	74.52 mPa·s
328.15 K, 40610 kPa, Vibrating wire viscometry	89.47 mPa·s
328.15 K, 50030 kPa, Vibrating wire viscometry	105.8 mPa·s and 105.5 mPa·s and 105.9 mPa·s
328.15 K, 50040 kPa, Vibrating wire viscometry	105.5 mPa·s and 105.7 mPa·s
328.15 K, 50050 kPa, Vibrating wire viscometry	105.7 mPa·s
328.15 K, 50070 kPa, Vibrating wire viscometry	105.9 mPa·s
328.15 K, 50080 kPa, Vibrating wire viscometry	105.8 mPa·s
328.15 K, 65530 kPa, Vibrating wire viscometry	139.6 mPa·s
328.16 K, 1000 kPa, Vibrating wire viscometry	41.66 mPa·s
328.16 K, 1030 kPa, Vibrating wire viscometry	41.61 mPa·s and 41.82 mPa·s
328.16 K, 1050 kPa, Vibrating wire viscometry	41.76 mPa·s
328.16 K, 2510 kPa, Vibrating wire viscometry	43.2 mPa·s
328.16 K, 2520 kPa, Vibrating wire viscometry	43.23 mPa·s
328.16 K, 2530 kPa, Vibrating wire viscometry	43.31 mPa·s
328.16 K, 5100 kPa, Vibrating wire viscometry	45.73 mPa·s and 45.69 mPa·s
328.16 K, 5130 kPa, Vibrating wire viscometry	45.73 mPa·s and 45.72 mPa·s
328.16 K, 5140 kPa, Vibrating wire viscometry	45.67 mPa·s
328.16 K, 7580 kPa, Vibrating wire viscometry	47.76 mPa·s
328.16 K, 10390 kPa, Vibrating wire viscometry	50.78 mPa·s
328.16 K, 10400 kPa, Vibrating wire viscometry	50.84 mPa·s and 50.82 mPa·s
328.16 K, 10410 kPa, Vibrating wire viscometry	50.74 mPa·s
328.16 K, 15100 kPa, Vibrating wire viscometry	55.71 mPa·s
328.16 K, 15110 kPa, Vibrating wire viscometry	55.52 mPa·s
328.16 K, 15130 kPa, Vibrating wire viscometry	55.62 mPa·s
328.16 K, 20020 kPa, Vibrating wire viscometry	60.83 mPa·s
328.16 K, 20030 kPa, Vibrating wire viscometry	60.93 mPa·s
328.16 K, 30420 kPa, Vibrating wire viscometry	74.4 mPa·s
328.16 K, 40570 kPa, Vibrating wire viscometry	89.15 mPa·s
328.16 K, 40590 kPa, Vibrating wire viscometry	89.1 mPa·s
328.16 K, 40620 kPa, Vibrating wire viscometry	89.25 mPa·s
328.16 K, 50040 kPa, Vibrating wire viscometry	105.5 mPa·s
328.16 K, 65490 kPa, Vibrating wire viscometry	139.6 mPa·s
343.14 K, 1080 kPa, Vibrating wire viscometry	22.75 mPa·s
343.14 K, 10140 kPa, Vibrating wire viscometry	27.1 mPa·s
343.14 K, 10150 kPa, Vibrating wire viscometry	27.11 mPa·s and 27.07 mPa·s
343.14 K, 19890 kPa, Vibrating wire viscometry	32.41 mPa·s
343.14 K, 19900 kPa, Vibrating wire viscometry	32.35 mPa·s and 32.43 mPa·s
343.14 K, 19910 kPa, Vibrating wire viscometry	32.45 mPa·s
343.14 K, 19920 kPa, Vibrating wire viscometry	32.38 mPa·s
343.14 K, 19930 kPa, Vibrating wire viscometry	32.41 mPa·s
343.14 K, 30240 kPa, Vibrating wire viscometry	38.59 mPa·s
343.14 K, 30250 kPa, Vibrating wire viscometry	38.67 mPa·s and 38.63 mPa·s and 38.6 mPa·s
343.14 K, 30260 kPa, Vibrating wire viscometry	38.59 mPa·s
343.14 K, 40260 kPa, Vibrating wire viscometry	45.94 mPa·s
343.14 K, 40270 kPa, Vibrating wire viscometry	45.89 mPa·s and 45.83 mPa·s
343.14 K, 40280 kPa, Vibrating wire viscometry	45.91 mPa·s
343.14 K, 49840 kPa, Vibrating wire viscometry	53.72 mPa·s and 53.82 mPa·s
343.14 K, 49860 kPa, Vibrating wire viscometry	53.79 mPa·s
